Measurements reported in patent US20180362485A1, “N-HYDROXYFORMAMIDE COMPOUNDS AND COMPOSITIONS COMPRISING THEM FOR USE AS BMP l, TLL1 AND/OR TLL2 INHIBITORS” (GlaxoSmithKline Intellectual Property (No. 2) Limited, priority 2015, published 2018).
Structures can show the parent of a compound that is named as a salt.

Key:
[1] = tested on: Generation of Procollagen I C-Terminal Propeptide (PICP); assay: Cell-based inhibition assay of generation of procollagen I C-terminal propeptide (PICP), PICP ELISA; settings: Cardiac fibroblast, human cardiac fibroblasts, 24 to 48 hr, read-out: pIC50, PICP cellular inhibition assay (converted)
Protocol: (§1) An adaptation of the collagen deposition assay described by Chen, C. Z. C., et al., British Journal of Pharmacology, 2009, 158, 1196-1209 is used to examine effect of compounds on procollagen I processing and collagen deposition. In the adapted assay, human cardiac fibroblasts are utilized. Processing of procollagen I is determined by a PICP ELISA assay and deposition of mature collagen is determined by immunostaining.
(§2) Human cardiac fibroblasts are cultured and maintained until passage 6 in FGM-3 media (Lonza, #CC-3132) in a 37° C. humidified incubator with 5% CO2. They are then seeded in 96-well black wall, clear bottom plates at 10,000 to 15,000 cells per well in eagle's minimum essential media (EMEM, ATCC #30-2003) containing 10% fetal bovine serum (FBS, Life Technologies #10082147), 1% Glutamax (Life Technologies #35050061) and 1% Penicillin and Streptomycin (Life Technologies #15070063). These cultures are placed in 37° C. incubator. The next day, media is removed by aspiration and cells are rinsed with phosphate buffered saline. Crowding media (also called ficoll media) is prepared by adding 112.5 mg/ml of ficoll70 and 75 mg/ml ficoll400 (GE healthcare #17-0310-10 and 17-0300-10, respectively), 100 μM ascorbic acid, 1% Glutamax and 1% Penicillin and Streptomycin to EMEM media. Test compounds (dissolved in DMSO) are diluted into crowding media and then added to the cells. Final concentration of DMSO in crowding media is less than 0.3%. Cells are treated for 24 to 48 hr in a 37° C. incubator. At the end of the treatment period, cell media are collected. The level of PICP in the media is determined by a PICP ELISA assay (Quidel #8003) following the manufacturer's protocol. Potencies of test compounds are calculated by fitting PICP levels, relative to untreated controls, to log (inhibitor) vs. response equation using Graphpad Prism software 5.0 and expressed as pIC50.

[2] = tested on: deposition of mature collagen; assay: Cell-based inhibition assay of mature collagen deposition (immunostaining); settings: Cardiac fibroblast; human cardiac fibroblasts, immunostaining of mature collagen I; read-out: pIC50, mature collagen cellular inhibition assay (converted)
Protocol: as §1, §2
For some compounds, deposition of mature collagen is measured by immunostaining in addition to PICP levels. At the end of the treatment period, cells on culture plate are fixed with 100% methanol (prechilled to −20° C.) for 10 min. Then the cells are immunostained with mouse anti-mature collagen I antibody (1:500 dilution, Sigma#C2456), anti-mouse secondary antibody Alexa647 (1:500 dilution, Invitrogen#A21236) and Hoechst (for nuclei, 2 μg/ml, Invitrogen#H3596). Fluorescent image acquisition is done using the Operetta High Content Imaging system (Perkin Elmer). For each image field, the intensity of mature collagen staining is normalized with the number of nuclei. Normalized collagen levels are used to calculate the potency of test compounds with Graphpad Prism software, as described above.

CCCCC[C@@H](C(=O)NCNC(=O)c1ccc(-c2ccc(C(=O)OCC)cc2)o1)[C@@H](CC)N(O)C=O [Example 100, ethyl 4-(5-((((R)-2-((R)-1-(N-hydroxyformamido)propyl)heptanamido)methyl)carbamoyl)furan-2-yl)benzoate]
IC50 [1]: < 398 nM

CCCCC[C@@H](C(=O)NCNC(=O)c1ccc(-c2ccc(C(=O)OCCCC)cc2)o1)[C@@H](CC)N(O)C=O [Example 101, butyl 4-(5-((((R)-2-((R)-1-(N-hydroxyformamido)propyl)heptanamido)methyl)carbamoyl)furan-2-yl)benzoate]
IC50 [1]: < 398 nM

CCCCC[C@@H](C(=O)NCNC(=O)c1ccc(-c2ccc(C(=O)OCCN(C)C)cc2)o1)[C@@H](CC)N(O)C=O [Example 104, 2-(dimethylamino) ethyl 4-(5-((((R)-2-((R)-1-(N-hydroxyformamido)propyl)heptanamido)methyl)carbamoyl)furan-2-yl)benzoate]
IC50 [1]: < 398 nM

CCCCC[C@@H](C(=O)NCNC(=O)c1ccc(-c2ccc(C(=O)N[C@@H](CC(=O)OC(C)(C)C)C(=O)OC(C)(C)C)c(OCC)c2)o1)[C@@H](CC)N(O)C=O [Example 112, (S)-di-tert-butyl 2-(2-ethoxy-4-(5-((((R)-2-((R)-1-(N-hydroxyformamido)propyl)heptanamido)methyl)carbamoyl)furan-2-yl)benzamido) succinate]
IC50 [1]: < 398 nM

CCCCC[C@@H](C(=O)NCNC(=O)c1ccc(-c2ccc(C(=O)N[C@@H](CC(=O)O)C(=O)OCC)c(OCC)c2)o1)[C@@H](CC)N(O)C=O [Example 113, (S)-4-ethoxy-3-(2-ethoxy-4-(5-((((R)-2-((R)-1-(N-hydroxyformamido)propyl)heptanamido)methyl)carbamoyl)furan-2-yl)benzamido)-4-oxobutanoic acid]
IC50 [1]: < 398 nM

CCCCC[C@@H](C(=O)NCNC(=O)c1ccc(-c2ccc(C(=O)N[C@@H](CC(=O)O)C(=O)OC(C)(C)C)c(OCC)c2)o1)[C@@H](CC)N(O)C=O [Example 114, (S)-4-(tert-butoxy)-3-(2-ethoxy-4-(5-((((R)-2-((R)-1-(N-hydroxyformamido)propyl)heptanamido)methyl)carbamoyl)furan-2-yl)benzamido)-4-oxobutanoic acid]
IC50 [1]: < 398 nM

CCCCC[C@@H](C(=O)NCNC(=O)c1ccc(-c2cc(OCC)cc(P(=O)(OCOC(C)=O)OCOC(C)=O)c2)o1)[C@@H](CC)N(O)C=O [Example 115, (((3-ethoxy-5-(5-((((R)-2-((R)-1-(N-hydroxyformamido)propyl)heptanamido)methyl)carbamoyl)furan-2-yl)phenyl)phosphoryl)bis(oxy))bis (methylene) diacetate]
IC50 [1]: < 398 nM

CCCCC[C@@H](C(=O)NCNC(=O)c1ccc(-c2ccc(C(=O)N[C@@H](CC(=O)O)C(=O)OCOC(=O)c3ccccc3)c(OCC)c2)o1)[C@@H](CC)N(O)C=O [Example 116, (S)-4-((benzoyloxy)methoxy)-3-(2-ethoxy-4-(5-((((R)-2-((R)-1-(N-hydroxyformamido)propyl)heptanamido)methyl)carbamoyl)furan-2-yl)benzamido)-4-oxobutanoic acid]
IC50 [1]: < 398 nM

CCCCC[C@@H](C(=O)NCNC(=O)c1ccc(-c2ccc(C(=O)N[C@@H](CC(=O)OC)C(=O)OC)c(OCC(=O)OC)c2)o1)[C@@H](CC)N(O)C=O [Example 142, (S)-dimethyl 2-(4-(5-((((R)-2-((R)-1-(N-hydroxyformamido)propyl)heptanamido)methyl)carbamoyl)furan-2-yl)-2-(2-methoxy-2-oxoethoxy)benzamido)succinate]
IC50 [1]: < 398 nM

CCCCC[C@@H](C(=O)NCNC(=O)c1ccc(-c2ccc(C(=O)N[C@@H](CC(=O)OCC)C(=O)OCC)c(OCC)c2)o1)[C@@H](CC)N(O)C=O [Example 143, (S)-diethyl 2-(2-ethoxy-4-(5-((((R)-2-((R)-1-(N-hydroxyformamido)propyl)heptanamido)methyl)carbamoyl)furan-2-yl)benzamido)succinate]
IC50 [1]: < 398 nM

CCCCC[C@@H](C(=O)NCNC(=O)c1ccc(-c2cc(OCC)cc(P(=O)(O)OCOC(=O)OC(C)C)c2)o1)[C@@H](CC)N(O)C=O [Example 302, (((3-ethoxy-5-(5-((((R)-2-((R)-1-(N-hydroxyformamido)propyl)heptanamido)methyl)carbamoyl)furan-2-yl)phenyl) (hydroxy)phosphoryl)oxy)methyl isopropyl carbonate]
IC50 [1]: < 398 nM

CCCCC[C@@H](C(=O)NCNC(=O)c1ccc(-c2cc(OCC)cc(P(=O)(O)Oc3ccccc3)c2)o1)[C@@H](CC)N(O)C=O [Example 400, Phenyl Hydrogen (3-ethoxy-5-(5-((((R)-2-((R)-1-(N-hydroxyformamido)propyl)heptanamido)methyl)carbamoyl)furan-2-yl)phenyl)phosphonate, Ammonia Salt]
IC50 [1]: < 398 nM

CCCCC[C@@H](C(=O)NCNC(=O)c1ccc(-c2ccc(C(=O)N[C@@H](CC(=O)O)C(=O)O)c(OCC)c2)o1)[C@@H](CC)N(O)C=O [WO2015/104684 Example 74, (S)-2-(2-ethoxy-4-(5-((((R)-2-((R)-1-(N-hydroxyformamido)propyl)heptanamido)methyl)carbamoyl)furan-2-yl)benzamido)succinic acid]
IC50 [2]: < 1000 nM

CCCCC[C@@H](C(=O)NCNC(=O)c1ccc(-c2cc(OCC)cc(P(=O)(O)O)c2)o1)[C@@H](CC)N(O)C=O [WO2015/104684 Example 96, (3-ethoxy-5-(5-((((R)-2-((R)-1-(N-hydroxyformamido)propyl)heptanamido)methyl)carbamoyl)furan-2-yl)phenyl)phosphonic acid]
IC50 [2]: < 1000 nM

CCCCC[C@@H](C(=O)NCNC(=O)c1ccc(-c2ccc(C(=O)N[C@@H](CC(=O)O)C(=O)O)c(OCC(=O)O)c2)o1)[C@@H](CC)N(O)C=O [WO2015/104684 Example 126, (S)-2-(2-(carboxymethoxy)-4-(5-((((R)-2-((R)-1-(N-hydroxyformamido)propyl)heptanamido)methyl)carbamoyl)furan-2-yl)benzamido)succinic acid]
IC50 [2]: < 1000 nM

CCCCC[C@@H](C(=O)NCNC(=O)c1ccc(-c2ccc(C(=O)NCP(=O)(O)O)c(OCC)c2)o1)[C@@H](CC)N(O)C=O [WO2015/104684 Example 139, ((2-ethoxy-4-(5-((((R)-2-((R)-1-(N-hydroxyformamido)propyl)heptanamido)methyl)carbamoyl)furan-2-yl)benzamido)methyl)phosphonic acid]
IC50 [2]: < 1000 nM
